Patent publication US11873320B2 (REATA PHARMACEUTICALS HOLDINGS, LLC, priority 2013, dated 2024)
Where two headings read alike, the source gives them in different places.

Columns and labels:
TGA-MS of solid forms = type: physicochemical; settings: for hygroscopicity: indicated by TGA-MS; for mass loss in TGA-MS between 25 and 200° C.: traces of H2O
Procedure: The TGA was run with TA instruments, data were collected on a thermal balance (Q-5000, TA Instruments, New Castle, Del.) equipped with a data analyzer (Universal Analysis 2000, version 4.5A, TA Instruments, New Castle, Del.). During experiments, the furnace was purged with nitrogen at 60 mL/minute, while the balance chamber was purged at 40 mL/minute. Temperature of the TGA furnace was calibrated using curie points of […] and nickel. Sample size ranged from 2 to 20 mg, and a heating rate of 10° C./minute was used.
For TGA-MS, the thermogravimetric analysis part was the same as above. The mass of evolved gas was analyzed with […] GSD 301 T3 ThermoStar ([…] Vacuum, Asslar, Germany). The instrument was operated and data evaluated with Software Quadstar 32-bit (V7.01, Inficon, LI-9496 Balzers, Liechtenstein).

[1] = tested on: IFNγ-induced NO production; assay: IFNγ-induced NO production in RAW264.7 macrophages (Griess reagent); type: cell-based; settings: Mus musculus
Procedure: (§1) Inhibition of IFNγ-induced NO production by AIMs is Nrf2-dependent (Dinkova-Kostova, 2005). […] Nitrite (NO2^−) levels in the media were measured as a surrogate for nitric oxide using the Griess reagent assay. Cell viability was assessed using the WST-1 assay. […] 63170, 63171, 63179, and 63189 are compounds of the formulas: […]

[2] = tested on: Nrf2 protein expression in SK-N-SH cells; assay: in-cell western NQO1 assay, SK-N-SH cells; type: cell-based; settings: Homo sapiens, 72 h, 3 days incubation, read-out: EC50 for induction of Nrf2 protein expression in SK-N-SH cells
Procedure: HMOX1 protein was not detected in untreated or RTA 408-treated SH-SY5Y cells. […] The same amount of 63170 (54.6 nM) was required.
The EC50 was measured using an in-cell western NQO1 assay where the cells were incubated with the compound under evaluation for 3 days. After incubation with the compound of interest, the cells were reacted with mouse NQO1 antibody and then the next day the cells were reacted with IRDye-800CW-anti-mouse IgG antibody. The target signals were visualized and then analyzed.

glutathione levels = assay: induction of glutathione levels, RAW264.7 mouse model; type: cell-based
Source text: Glutathione and NADPH are critical factors required for the maintenance of cellular redox capacity. […] Data shown are representative of two independent experiments.

RAW264.7 cells = assay: WST-1 cell viability, RAW264.7; type: cell-based; settings: Mus musculus
Procedure: as §1

[3] = tested on: TNFα-induced NF-κB activation; assay: TNFα-induced NF-κB luciferase reporter, HeLa/NF-κB-Luc cells; type: cell-based; settings: Homo sapiens, 1 h pretreatment, TNFα 10 ng/mL 5 h
Source text: NF-κB is a transcription factor that plays a central role in the regulation of many immune and inflammatory responses.

[4] = 2 h pre-treatment, 20 ng/mL IFNγ 24 h, read-out: IC50, suppression of IFNγ-induced NO production

| SMILES | IC50 [1, 4] | EC50 [2] | EC50 (glutathione levels) | other results |
| --- | --- | --- | --- | --- |
| CC1(C)CC[C@]2(NC(=O)C(C)(F)F)CC[C@]3(C)[C@H](C(=O)C=C4[C@@]5(C)C=C(C#N)C(=O)C(C)(C)[C@@H]5CC[C@]43C)[C@@H]2C1 [Form A] |  |  |  | hygroscopicity (TGA-MS of solid forms): slightly hygroscopic; mass loss in TGA-MS between 25 and 200° C. (TGA-MS of solid forms): ~0.5 wt.-% |
| CC1(C)CC[C@]2(NC(=O)C(F)(F)F)CC[C@]3(C)[C@H](C(=O)C=C4[C@@]5(C)C=C(C#N)C(=O)C(C)(C)[C@@H]5CC[C@]43C)[C@@H]2C1 [compound 63171] | 6.9 ± 0.6 nM | 122 nM | 23.2 nM |  |
| CC1(C)CC[C@]2(NC(=O)C(C)(F)F)CC[C@]3(C)[C@H](C(=O)C=C4[C@@]5(C)C=C(C#N)C(=O)C(C)(C)[C@@H]5CC[C@]43C)[C@@H]2C1 [Form B] |  |  |  | hygroscopicity (TGA-MS of solid forms): very slightly hygroscopic; mass loss in TGA-MS between 25 and 200° C. (TGA-MS of solid forms): ~0.2 wt.-% |
| CC1(C)CC[C@]2(CO)CC[C@]3(C)[C@H](C(=O)C=C4[C@@]5(C)C=C(C#N)C(=O)C(C)(C)[C@@H]5CC[C@]43C)[C@@H]2C1 [compound 63355, reference compound] |  |  |  | IC50 ([1]; Table 15, read-out: NO IC50 (nM), RAW264.7): 0.63 ± 0.06 nM; IC50 (RAW264.7 cells): 150 nM |
| CCC(=O)N[C@]12CCC(C)(C)C[C@H]1[C@H]1C(=O)C=C3[C@@]4(C)C=C(C#N)C(=O)C(C)(C)[C@@H]4CC[C@@]3(C)[C@]1(C)CC2 [compound 63189] | 7 ± 2 nM | 102 nM | 16 nM | IC50 [3]: 854 nM |
| CC(=O)N[C@]12CCC(C)(C)C[C@H]1[C@H]1C(=O)C=C3[C@@]4(C)C=C(C#N)C(=O)C(C)(C)[C@@H]4CC[C@@]3(C)[C@]1(C)CC2 [compound 63170] | 8 ± 3 nM | 54.6 nM | 12.1 nM | IC50 [3]: 953 nM |
| CC1(C)CC[C@]2(NC(=O)CC(F)(F)F)CC[C@]3(C)[C@H](C(=O)C=C4[C@@]5(C)C=C(C#N)C(=O)C(C)(C)[C@@H]5CC[C@]43C)[C@@H]2C1 [compound 63179] |  | 126 nM |  | IC50 ([1]; unit given as nm, read-out: IC50, suppression of IFNγ-induced NO production): 11 ± 2 nM |
